Format in all cases: in vivo, hamster (Golden Syrian)
Assay [1] concerns free choice fed hamsters (diet-induced NASH hamster model of HFpEF). The assay is described as follows: Echocardiography (left ventricular function and dimensions) in diet-induced NASH hamster model of HFpEF. To be noted: for cardiac parameters (overall conclusion): diet-induced NASH hamster model, end of 5-week treatment period. From the text:
Animals. Male hamsters (Golden Syrian), 4-week-old at receipt, were acclimated at least 5 days before the beginning of the study. Control animals were fed with a chow diet with normal tap water. For diet-induced NASH model, animals were fed with a free choice diet consisting of (a) a chow diet with normal water and (b) a high fat/cholesterol diet with 10% fructose enriched tap water. Food and water intake have been measured once a week. Dosage regimen and test groups. Animals were divided into 5 groups: [table] The study was conducted over 20 weeks. Treatments were administered from week 15 until the end of the experiment (duration 5 weeks), once a day, per os, at a rate of 10 ml/kg. Water was used as vehicle. Vardenafil was used as reference compound. Echocardiography. Left ventricular function and dimensions were assessed 14 and 20 weeks after the start of diet using two-dimensional echocardiograph (VF16-5 probe, Siemens, Acuson NX3 Elite). Numeric images of the heart were obtained in parasternal long and short-axis views using or not time motion for systolic function and in apical four chambers view with doppler mode for diastolic function. Heart rate, left ventricular end-diastolic and end-systolic diameters and volumes, as well as posterior and anterior wall thicknesses in diastole and systole, mitral flow velocity (E and A waves), the isovolumic relaxation time (IVRT), and annular tissue velocity of the mitral valve (e′ and a′ peaks) were measured. Left ventricular ejection fraction, fractional shortening, E/A ratio and E/E′ ratio were then calculated. Data analysis. All graphs represent means±standard error of mean (sem). Statistical analysis has been performed using GraphPad Prism 5 software. Single comparisons were made using Student's unpaired t-test or Mann Whitney in case of significant variance. Multiple comparisons have been carried out with two-way ANOVA followed by post-hoc Bonferroni test or one-way ANOVA followed by post-hoc Dunnett or Kruskall-Wallis test in case of significant variance. For all tests, p<0.05 was considered significant.

Assay [2] has the same test system. The assay is described as follows: Body weight, food and water intake in diet-induced NASH hamster model of HFpEF. The note with it: treatment once a day per os from week 15, 5 weeks (compound 001 600 mg/kg, vardenafil 10 mg/kg), FIG. 5. The text has this:
(§1) Animals. Male hamsters (Golden Syrian), 4-week-old at receipt, were acclimated at least 5 days before the beginning of the study. Control animals were fed with a chow diet with normal tap water. For diet-induced NASH model, animals were fed with a free choice diet consisting of (a) a chow diet with normal water and (b) a high fat/cholesterol diet with 10% fructose enriched tap water. Food and water intake have been measured once a week. Dosage regimen and test groups. Animals were divided into 5 groups: [table] The study was conducted over 20 weeks. Treatments were administered from week 15 until the end of the experiment (duration 5 weeks), once a day, per os, at a rate of 10 ml/kg. Water was used as vehicle. Vardenafil was used as reference compound. Data analysis. All graphs represent means±standard error of mean (sem). Statistical analysis has been performed using GraphPad Prism 5 software. Single comparisons were made using Student's unpaired t-test or Mann Whitney in case of significant variance. […] During 20 weeks of diet including 5 weeks under treatment with vehicle, compound 001, vardenafil or both, body weight, food and water intake were recorded once a week. Blood was collected at week 14 and week 20 to measure plasma insulin, glucose and ALT/AST, and NT-pro BNP level was evaluated at week 20. Echocardiographic studies were assessed at week 14 and week 20. […]

For assay [3] the test system is unchanged. In words: Organ weights (heart, liver, lungs), normalized or not to tibia length, in diet-induced NASH hamster model of HFpEF. The note with it: normalized to tibia length; after 20 weeks of diet including 5 weeks of treatment per os (compound 001 600 mg/kg, vardenafil 10 mg/kg); FIG. 11.
Text: as §1

For assay [4] the test system is unchanged. In words: Biochemical analysis (glucose, plasma insulin, ALT/AST, NT pro-BNP) in diet-induced NASH hamster model of HFpEF. From the text: Animals. Male hamsters (Golden Syrian), 4-week-old at receipt, were acclimated at least 5 days before the beginning of the study. Control animals were fed with a chow diet with normal tap water. For diet-induced NASH model, animals were fed with a free choice diet consisting of (a) a chow diet with normal water and (b) a high fat/cholesterol diet with 10% fructose enriched tap water. Food and water intake have been measured once a week. Dosage regimen and test groups. Animals were divided into 5 groups: [table] The study was conducted over 20 weeks. Treatments were administered from week 15 until the end of the experiment (duration 5 weeks), once a day, per os, at a rate of 10 ml/kg. Water was used as vehicle. Vardenafil was used as reference compound. Biochemical analysis. After 14 and 20 weeks of diet, blood was collected through tail vein, saphenous vein or retro orbital sinus after a 6 h fasting period to measure respectively glucose, plasma insulin and ALT/AST. After 20 weeks of diet, blood was collected and centrifuged to obtain plasma which was used to measure NT pro-BNP in plasma. Data analysis. All graphs represent means±standard error of mean (sem). Statistical analysis has been performed using GraphPad Prism 5 software. Single comparisons were made using Student's unpaired t-test or Mann Whitney in case of significant variance. Multiple comparisons have been carried out with two-way ANOVA followed by post-hoc Bonferroni test or one-way ANOVA followed by post-hoc Dunnett or Kruskall-Wallis test in case of significant variance. For all tests, p<0.05 was considered significant.

On to `NC(=O)c1ccc[n+]([C@@H]2O[C@H](COP(=O)([O-])O)[C@@H](O)[C@H]2O)c1` [compound 001, nicotinamide mononucleotide], for which the results for the “cardiac parameters (overall conclusion)” value in assay [1] and in assay [1] (listed as NMN) were “improved most of cardiac parameters” and “improve cardiac parameters”, respectively. Besides, the diastolic function entry in assay [1] (echocardiography after 20 weeks of diet including 5 weeks of treatment per os (compound 001 600 mg/kg, vardenafil 10 mg/kg)) is “improved diastolic function”. For the same compound, in assay [1] (echocardiography after 20 weeks of diet including 5 weeks of treatment per os (compound 001 600 mg/kg, vardenafil 10 mg/kg), vs free choice vehicle, FIG. 8A), the E/A ratio result is “significant decrease in E/A ratio”. Moreover, in assay [1] (echocardiography after 20 weeks of diet including 5 weeks of treatment per os (compound 001 600 mg/kg, vardenafil 10 mg/kg), vs free choice vehicle, FIG. 8B), the “E′/A′ ratio” value is reported as “increased E′/A′ ratio”. Besides, the “E/E′ ratio” value in assay [1] (echocardiography after 20 weeks of diet including 5 weeks of treatment per os (compound 001 600 mg/kg, vardenafil 10 mg/kg), vs free choice vehicle, FIG. 8D) is on record as “E/E′ ratio decreased”. Also, the “isovolumic relaxation time (IVRT)” value in assay [1] (echocardiography after 20 weeks of diet including 5 weeks of treatment per os (compound 001 600 mg/kg, vardenafil 10 mg/kg), vs free choice vehicle, FIG. 8E) is given as “increased to normal levels”. Further, the “body weight / body weight gain” value in assay [2] is “significant decrease in body weight”. Further, the “lung oedema (difference between wet and dry lung weight)” value in assay [3] is “non significantly reduced”. Moreover, the plasma insulin levels entry in assay [4] (week 20, after 5 weeks of treatment per os (compound 001 600 mg/kg, vardenafil 10 mg/kg), FIG. 9C) is on record as “tended to increase plasma insulin levels”. Further, the HOMA-IR index result in assay [4] (week 20, after 5 weeks of treatment per os (compound 001 600 mg/kg, vardenafil 10 mg/kg), FIG. 9E) is “tended to increase plasma insulin levels and HOMA-IR index”. The “plasma AST” value in assay [4] (week 20, after 5 weeks of treatment per os, 600 mg/kg, FIG. 9B) was “tendency to restore plasma AST”.

Values taken from patent US20240382511A1, “NICOTINAMIDE MONONUCLEOTIDE DERIVATIVES AND USE THEREOF FOR THE TREATMENT OF HEART FAILURE WITH PRESERVED EJECTION FRACTION” (NUVAMID SA, priority 2021, published 2024).
